Source: patent US4675404A, “8-pyridazinylcarbamoyl ergolines” (Farmitala Carlo Erba S.p.A., priority 1981, dated 1987)
Like-named read-outs stand apart in the source and are kept apart here.

Columns and labels:
[1] = test system: reserpine-induced blepharospasm; assay: antagonism to reserpine-induced blepharospasm; format: in vivo, male mice; conditions: Mus musculus, po, 3 h, read-out: Reserpine antagonism ED50, Blepharospasm
Description: (§1) The antidepressant activity of the ergoline derivatives according to the invention can be evaluated by antagonism to reserpine-induced blepharospasm and hypothermia.
(§2) The tests were performed in an air-conditioned room at a constant termperature of 19°±1° C. Randomized groups of male mice were respectively treated by gavage with appropriate screening doses (from a maximum of 25 mg/kg below) of the test compounds, suspended in the vehicle (Methocel 0.5%; 1 ml/100 g b.w.), or with the vehicle alone. One hour later the animals received an i.p. injection of reserpine (1.5 mg/kg; 1 ml/100 g b.w.), and one of the control groups the same volume of the vehicle alone (blank controls).
(§3) Three hours after pretreatments, i.e. two hours after reserpine or vehicle treatments, blepharospasm was evaluated in scores as proposed by Rubin et al. (J. Pharmacol. 120, 125 (1957)). Two hours after the above mentioned evaluation the rectal temperature of the animals was recorded by an appropriate probe connected to a digital thermometer (Ellab DU-3).

[2] = test system: reserpine-induced hypothermia; assay: antagonism to reserpine-induced hypothermia; format: in vivo, male mice; conditions: Mus musculus, po, 5 h; mice; p.o. by gavage 1 h before reserpine 1.5 mg/kg i.p.; rectal temperature 2 h after blepharospasm evaluation
Description: as §1, §2, §3

[3] = orientative acute toxicity; conditions: in vivo, po

| Structure (SMILES) | ED50 [1] [mg/kg] | ED50 [2] [mg/kg] | LD50 [3] [mg/kg] | ED50 ([1]; mice, p.o. by gavage 1 h before reserpine 1.5 mg/kg i.p., scored 2 h after reserpine) [mg/kg] |
| --- | --- | --- | --- | --- |
| C=CCN1C[C@H](C(=O)Nc2nccs2)C[C@@H]2c3cccc4[nH]cc(c34)C[C@H]21 [Example 6, 6-allyl-8β-(2-thiazolyl-carbamoyl)-ergoline] | 2.5 | 4 | > 300 |  |
| Cc1nnc(NC(=O)[C@@H]2C[C@@H]3c4cccc5[nH]c(C)c(c45)C[C@H]3N(C)C2)s1 [Example 16, 2,6-dimethyl-8β-[2-(5-methyl-1,3,4-thiadiazolyl)-carbamoyl]-ergoline] | 1 | 1.7 | > 800 |  |
| Cc1nnc(NC(=O)[C@@H]2C[C@@H]3c4cccc5[nH]cc(c45)C[C@H]3N(C)C2)s1 [Example 10, 6-methyl-8β-[2-(5-methyl-1,3,4-thiadiazolyl)-carbamoyl]-ergoline] | 3.5 | 3.1 | > 600 |  |
| CN1C[C@H](C(=O)Nc2nccs2)C[C@@H]2c3cccc4c3c(cn4C)C[C@H]21 [1,6-dimethyl-8β-(2-thiazolyl-carbamoyl)-ergoline, reference compound] | 7 | 15 |  |  |
| C=CCN1C[C@H](C(=O)Nc2ccc(Cl)nn2)C[C@@H]2c3cccc4[nH]cc(c34)C[C@H]21 [Example 5, 6-allyl-8β-(6-chloro-3-pyridazinyl-carbamoyl)-ergoline] | 3.6 | 4.5 | > 600 |  |
| Cc1[nH]c2cccc3c2c1C[C@@H]1[C@@H]3C[C@@H](C(=O)Nc2ccc(Cl)nn2)CN1C [Example 4, 2,6-dimethyl-8β-(6-chloro-3-pyridazinyl-carbamoyl)-ergoline] | 0.2 | 0.6 | > 300 |  |
| CCCN1C[C@H](C(=O)Nc2nccs2)C[C@@H]2c3cccc4[nH]cc(c34)C[C@H]21 [Example 7, 6-propyl-8β-(2-thiazolyl-carbamoyl)-ergoline] | 0.5 | 0.6 | > 300 |  |
| CN(C)CCCN1c2ccccc2CCc2ccccc21 [Imipramine, reference compound] |  | 18.2 |  | 8.1 |
